We go through 9 molecules from PMC11850406, “Large-scale screening of HIV-1 T-cell epitopes restricted by 12 prevalent HLA-A allotypes in Northeast Asia and universal detection of HIV-1-specific CD8^+ T cells” (Frontiers in Microbiology, 2025).

One assay concerns the target T1, HLA-A1101 (Homo sapiens, UniProt P04439, A114D/D185E/E176A/F33Y/L180Q/S129P/T187R).
T1 construct: expressed in transfected cells; host or cells: HMy2.CIR
As to the kind of experiment: cell-based. The class given is binding.

In the next assay the target is T2, HLA-A0301 (Homo sapiens, UniProt P04439).
T2 construct: expressed in transfected cells; host or cells: HMy2.CIR
T2 sequence (P61769 21-119): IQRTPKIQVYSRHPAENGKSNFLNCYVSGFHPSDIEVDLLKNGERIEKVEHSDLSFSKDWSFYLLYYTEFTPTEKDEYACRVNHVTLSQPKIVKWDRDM
T2 sequence (P04439 25-365): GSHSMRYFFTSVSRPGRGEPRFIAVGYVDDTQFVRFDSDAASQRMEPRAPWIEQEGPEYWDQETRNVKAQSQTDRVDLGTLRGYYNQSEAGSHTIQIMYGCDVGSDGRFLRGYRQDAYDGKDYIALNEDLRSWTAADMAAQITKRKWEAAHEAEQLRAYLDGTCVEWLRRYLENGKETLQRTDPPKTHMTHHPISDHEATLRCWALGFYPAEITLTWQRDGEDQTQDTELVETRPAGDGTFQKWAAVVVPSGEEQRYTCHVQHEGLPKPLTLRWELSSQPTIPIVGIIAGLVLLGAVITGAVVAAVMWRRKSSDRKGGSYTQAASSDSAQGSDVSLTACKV
As to the kind of experiment: cell-based. It counts as binding. The conditions noted are these: for inhibition at 5 µM: read-out: 5-μM inhibition (%); for inhibition at 15 µM: read-out: 15-μM inhibition (%).

The target of a further assay is HLA-A1102 (Homo sapiens, UniProt P04439, A114D/D185E/E176A/E43K/F33Y/L180Q/S129P/T187R). Kind of assay: cell-based. It counts as binding. The conditions noted are these: A1102, 24 h, 4°C, flow cytometry. On the technique in general: A flow cytometer gives signals particle by particle.
Chain of HLA-A1102 (P04439 25-365 limits assumed, stated change not applied): as the sequence (P04439 25-365) above
A further assay concerns the target T3, HLA-A3001 (Homo sapiens, UniProt P04439, D140H/D185E/E176W/F33S/G80R/H175R/K168Q/R138E/R41S).
T3 construct: expressed in transfected cells; host or cells: HMy2.CIR
As to the kind of experiment: cell-based. It counts as binding. The conditions noted are these: for inhibition at 5 µM / inhibition at 15 µM: 24 h; for inhibition at 5 µM: read-out: 5-μM inhibition (%); for inhibition at 15 µM: read-out: 15-μM inhibition (%).

For the next assay, the target named is T4, HLA-A0101 (Homo sapiens, UniProt P04439, A114D/A174V/A182V/D101N/D185E/E176A/E190D/L180R/Q94H/R68K/S129P/T187R/V100A/V91M/W191G).
T4 construct: expressed in transfected cells; host or cells: HMy2.CIR
Kind of assay: Peptide competitive binding assay, HMy2.CIR cells expressing A0101. The settings on record: for inhibition at 5 µM / inhibition at 15 µM: 24 h; for inhibition at 5 µM: read-out: 5-μM inhibition (%); for inhibition at 15 µM: read-out: 15-μM inhibition (%).

Another assay addresses T5, HLA-A0201 (Homo sapiens, UniProt P04439, D140Y/D185E/D98H/E176V/E277Q/G131W/G231S/I119V/I121R/I166T/I218V/L300P/L318F/N151K/N90K/P208A/P217A/Q86G/Q94H/R138H/R169H/T345S).
T5 construct: expressed in transfected cells; host or cells: HMy2.CIR
Kind of assay: cell-based. It counts as binding. The conditions noted are these: A0201, 24 h, 4°C, flow cytometry.

Another assay concerns the target T6, HLA-A0203 (Homo sapiens, UniProt P04439, A173T/D140Y/D185E/D98H/E277Q/G131W/G231S/I119V/I121R/I166T/I218V/L180W/L300P/L318F/N151K/N90K/P208A/P217A/Q86G/Q94H/R138H/R169H/T345S).
T6 construct: expressed in transfected cells; host or cells: HMy2.CIR
Kind of assay: cell-based. The class given is binding.

The target in the next assay is T7, HLA-A0206 (Homo sapiens, UniProt P04439, D140Y/D185E/D98H/E176V/E277Q/F33Y/G131W/G231S/I119V/I121R/I166T/I218V/L300P/L318F/N151K/N90K/P208A/P217A/Q86G/Q94H/R138H/R169H/T345S).
T7 construct: expressed in transfected cells; host or cells: HMy2.CIR
Kind of assay: Peptide competitive binding assay, HMy2.CIR cells expressing A0206. The conditions noted are these: for inhibition at 5 µM: peptide 5 μM vs FITC-labeled reference peptide 300 nM; for inhibition at 5 µM / inhibition at 15 µM: 24 h, 4°C, flow cytometry; for inhibition at 15 µM: peptide 15 μM vs FITC-labeled reference peptide 300 nM.

Setting [1] is: peptide 5 μM vs FITC-labeled reference peptide 300 nM, read-out: 5-μM inhibition (%).
[2] abbreviates: peptide 15 μM vs FITC-labeled reference peptide 300 nM, read-out: 15-μM inhibition (%).
Setting [3] is: A0301, peptide 5 μM vs FITC-labeled reference peptide 300 nM, 24 h, 4°C, flow cytometry.
The mark [4] stands for this setting: A0301, peptide 15 μM vs FITC-labeled reference peptide 300 nM, 24 h, 4°C, flow cytometry.
Where [5] appears, read: A0101, peptide 5 μM vs FITC-labeled reference peptide 300 nM, 4°C, flow cytometry.
The mark [6] stands for this setting: A0101, peptide 15 μM vs FITC-labeled reference peptide 300 nM, 4°C, flow cytometry.

Read-outs that look alike come from different tables or passages of the source. Where no end group is shown, it is not given here.

As for `CC[C@H](C)[C@H](NC(=O)[C@H](C)N)C(=O)N[C@@H](Cc1ccccc1)C(=O)N[C@@H](CCC(N)=O)C(=O)N[C@@H](CO)C(=O)N[C@@H](CO)C(=O)N[C@@H](CCSC)C(=O)N[C@H](C(=O)N[C@@H](CCCCN)C(=O)O)[C@@H](C)O` [Peptide P40], the IC50 on HLA-A1101 was less than 5 µM; on HLA-A0301 it was 5 to 15 µM; on HLA-A3001, less than 5 µM. The inhibition (commonly the drop in the measured response relative to a control, in per cent) at 5 µM at HLA-A1101 (A1101, peptide 5 μM vs FITC-labeled reference peptide 300 nM, 24 h, 4°C, flow cytometry, read-out: 5-μM inhibition (%)) came to 67.9%; at HLA-A0301 (24 h) it was 22.4%; at HLA-A1102 (setting [1]), 2.89%; on HLA-A3001, 60.4%. Also, the inhibition at 15 µM worked out at 89.5% at HLA-A1101 (A1101, peptide 15 μM vs FITC-labeled reference peptide 300 nM, 24 h, 4°C, flow cytometry, read-out: 15-μM inhibition (%)); 50.6% at HLA-A0301 (24 h); 16.1% on HLA-A1102 (setting [2]); 67.7% at HLA-A3001.

On to EADGKVSQNY [Peptide P67], for which, at HLA-A0101, the IC50 lay within 5 to 15 µM, the inhibition at 5 µM came to 21.4% and the inhibition at 15 µM worked out at 62%.

As for KLAGRWPVK [Peptide P95], the IC50 at HLA-A0301 is 5 to 15 µM; on HLA-A3001, less than 5 µM. The inhibition at 5 µM at HLA-A0301 (setting [3]) is 28.9%; on HLA-A3001 (A3001, peptide 5 μM vs FITC-labeled reference peptide 300 nM, 4°C, flow cytometry) it was 83.7%. The inhibition at 15 µM at HLA-A0301 (setting [4]) stood at 53.7%; at HLA-A3001 (A3001, peptide 15 μM vs FITC-labeled reference peptide 300 nM, 4°C, flow cytometry), 95.9%.

As for KLVSSGIRK [Peptide P85], the “5-μM inhibition (%)” value at HLA-A0301 (setting [3]) is reported as 19.14%. For the same molecule, on HLA-A0301 (setting [4]), the “15-μM inhibition (%)” value was 38.04%.

The molecule LLYWGQELK [Peptide P84] yielded an IC50 against HLA-A0301 of 5 to 15 µM. For the same molecule, at HLA-A0301 (setting [3]), the inhibition at 5 µM worked out at 25.7%. In addition, the inhibition at 15 µM at HLA-A0301 (setting [4]) came to 56.2%.

For RLINCNTSV [Peptide P6], the inhibition at 5 µM turned out to be 0.13% at HLA-A0201 (setting [1]); 15.8% at HLA-A0203 (A0203, peptide 5 μM vs FITC-labeled reference peptide 300 nM, 24 h, 4°C, flow cytometry, read-out: 5-μM inhibition (%)); 14.6% at HLA-A0206. Moreover, the inhibition at 15 µM came out at 23.6% at HLA-A0201 (setting [2]); 70.7% at HLA-A0203 (A0203, peptide 15 μM vs FITC-labeled reference peptide 300 nM, 24 h, 4°C, flow cytometry, read-out: 15-μM inhibition (%)); 41.8% at HLA-A0206. At HLA-A0203, this molecule had an IC50 of 5 to 15 µM.

On to VTDSQYALGI [Peptide P69], for which, at HLA-A0101 (setting [5]), the inhibition at 5 µM amounted to 35.6%. Also, at HLA-A0101 (setting [6]), the inhibition at 15 µM worked out at 71.2%. Besides, at HLA-A0101 (read-out: Affinity), the IC50 is 5 to 15 µM.

Consider WIILGLNKI [Peptide P72], for which the IC50 at HLA-A0206 (class from inhibition at 5 and 15 μM of FITC-labeled reference peptide binding, read-out: Affinity) fell in the range of 5 to 15 µM. In addition, at HLA-A0206, 5 µM produced 40.9% inhibition and testing at 15 µM gave an inhibition of 67.3%.

For YSENSSEYY [Peptide P68], at HLA-A0101 (A0101, class from inhibition at 5 and 15 μM of FITC-labeled reference peptide binding, read-out: Affinity), the IC50 was less than 5 µM. For the same molecule, the inhibition at 5 µM on HLA-A0101 (setting [5]) came out at 83.8%. The inhibition at 15 µM on HLA-A0101 (setting [6]) amounted to 94.2%.
